The Ki is the equilibrium dissociation constant of an inhibitor or competing ligand from its target.

We go through 19 compounds from patent publication US10716770B2, “Nicotinic receptor non-competitive antagonists” (Catalyst Biosciences, Inc., priority 2010, dated 2020).

Test [1] has as its target T1, human α4β2 (Homo sapiens, UniProt P17787+P43681).
T1 construct: host or cells: SH-EP1
The test can be described thus: Competition binding to human α4β2 nicotinic receptors in membrane preparations ([3H]-nicotine). The settings on record: [3H]-nicotine competition, membranes.

Test [2] deals with T1, human α4β2. The test can be described thus: Calcium flux functional assay, inhibition of nicotine response in SH-EP1-human α4β2 cells. It is filed as cell-based. Particulars: nicotine 1 μM. Here is the method:
(§1) SH-EP1-human α4β2 (Eaton et al., 2003), SH-EP1-human α4β4 (Gentry et al., 2003) and SH-EP1-α6β3β4α5 (Grinevich at al., 2005) cell lines were obtained from Dr. Ron Lukas (Barrow Neurological Institute). The SH-EP1 cell lines, PC12, SH-SY5Y and TE671/RD cells were maintained in proliferative growth phase in Dulbecco's modified Eagle's medium (Invitrogen, Carlsbad, Calif.) with 10% horse serum (Invitrogen), 5% fetal bovine serum (HyClone, Logan Utah), 1 mM sodium pyruvate, 4 mM L-glutamine. For maintenance of stable transfectants, the α4β2 and α4β4 cell media was supplemented with 0.25 mg/mL zeocin and 0.13 mg/mL hygromycin B. Selection was maintained for the α6β3β4α5 cells with 0.25 mg/mL of zeocin, 0.13 mg/mL of hygromycin B, 0.4 mg/mL of geneticin, and 0.2 mg/mL of blasticidin.
(§2) Twenty-four to forty-eight hours prior to each experiment, cells were plated in 96 well black-walled, clear bottom plates (Corning, Corning, N.Y.) at 60-100,000 cells/well. On the day of the experiment, growth medium was gently removed, 200 μL 1×FLIPR Calcium 4 Assay reagent (Molecular Devices, Sunnyvale, Calif.) in assay buffer (20 mM HEPES, 7 mM TRIS base, 4 mM CaCl2, 5 mM D-glucose, 0.8 mM MgSO4, 5 mM KCl, 0.8 mM MgCl2, 120 mM N-methyl D-glucamine, 20 mM NaCl, pH 7.4 for SH-EP1-human α4β2 cells or 10 mM HEPES, 2.5 mM CaCl2, 5.6 mM D-glucose, 0.8 mM MgSO4, 5.3 mM KCl, 138 mM NaCl, pH 7.4 with TRIS-base for all other cell lines) was added to each well and plates were incubated at 37° C. for 1 hour (29° C. for the 29° C.-treated SH-EP1-human α4β2 cells). For inhibition studies, competitor compound (10 pM-10 μM) was added at the time of dye addition. The plates were removed from the incubator and allowed to equilibrate to room temperature. Plates were transferred to a FLIPR Tetra fluorometric imaging plate reader (Molecular Devices) for addition of compound and monitoring of fluorescence (excitation 485 nm, emission 525 nm). The amount of calcium flux was compared to both a positive (nicotine) and negative control (buffer alone). The positive control was defined as 100% response and the results of the test compounds were expressed as a percentage of the positive control. For inhibition studies, the agonist nicotine was used at concentrations of 1 μM for SH-EP1-human α4β2 and SH-EP1-human α4β4 cells, 10 μM for PC12 and SH-SY5Y cells, and 100 μM for TE671/RD cells.
On the technique in general: A change in cytosolic calcium serves as a functional read-out for many receptors and channels.

Test [3] addresses T2, Human Ganglion (Homo sapiens, UniProt P30926+P32297).
T2 construct: Human Ganglion Ca Flux IC50; Human Ganglion Ca Flux Imax
The test can be described thus: Calcium flux functional assay, inhibition of nicotine response at human ganglionic receptor subtype. It is filed as cell-based. Particulars: read-out: Human Ganglion Ca Flux Imax. As for the experimental part: as §1, §2

The mark [4] stands for this setting: 29C/HS (29° C.-treated SH-EP1-human α4β2 cells), read-out: Human α4β2 Ca Flux IC50 [29C/HS].
The mark [5] stands for this setting: 29C/HS (29° C.-treated SH-EP1-human α4β2 cells), read-out: Human α4β2 Ca Flux Imax [29C/HS].
Setting [6] is: 37C/LS, read-out: Human α4β2 Ca Flux IC50 [37C/LS].
[7] abbreviates: 37C/LS, read-out: Human α4β2 Ca Flux Imax [37C/LS].
[8] abbreviates: 29C/HS (29° C.-treated SH-EP1-human α4β2 cells).

Structures are written as SMILES. Like-named read-outs stand apart in the source and are kept apart here.

On to `CNC1C2CCC(C2)C12CCC2` (stereo not drawn), for which, in test [1] (Human α4β2 Ki), the Ki was over 10000 nM. Besides, the IC50 in test [2] (setting [4]) came to 1000 nM; in test [2] (setting [6]), 500 nM. Also, the figures for the Emax in test [2] (setting [5]), in test [2] (setting [7]) and in test [3] were 99%, 97% and 97%, respectively.
With `C1CCN(C2C3CCC(C3)C23CCC3)C1` (stereo not drawn), in test [1] (read-out: Human α4β2 Ki), the Ki came out at 3800 nM. The IC50 was found to be 1400 nM in test [2] (setting [4]) and 59 nM in test [2] (Human α4β2 Ca Flux IC50 [37C/LS], 37C/LS). For the same compound, the Emax in test [2] (setting [5]) was determined as 90%; in test [2] (setting [7]), 96%; in test [3], 79%.
For the compound `C1CN(C2C3CCC(C3)C23CCC3)C1` (stereo not drawn), the IC50 in test [2] (setting [4]) came to 1400 nM; in test [2] (setting [6]), 740 nM. In addition, the Emax in test [2] (setting [5]) is 96%; in test [2] (setting [7]), 98%; in test [3], 89%.
Take `CN(C)C1C2CCC(C2)C12CCC2` (stereo not drawn): the Ki in test [1] (read-out: Human α4β2 Ki) is 2600 nM. Further, the figures for the IC50 in test [2] (setting [4]) and in test [2] (setting [6]) were 1800 nM and 620 nM, respectively. Moreover, the Emax in test [2] (setting [5]), in test [2] (setting [7]) and in test [3] was 98% in each case.
In turn, `CNC1C2CCC(C2)C12CC2` (stereo not drawn) yielded a Ki in test [1] (Human α4β2 Ki) of 540 nM. The figures for the IC50 in test [2] (setting [4]) and in test [2] (setting [6]) were 2100 nM and 570 nM, respectively. In addition, the Emax in test [2] (setting [5]) was 97%; in test [2] (setting [7]), 93%; in test [3] it was 93%.
Regarding `CNC1(C)C2CCC(C2)C12CCCC2` (stereo not drawn), the inhibitory constant (Ki) in test [1] (read-out: Human α4β2 Ki) was over 10000 nM. For the same compound, the IC50 in test [2] (setting [4]) was determined as 1100 nM; in test [2] (setting [6]), 120 nM. The Emax in test [2] (setting [5]) is 99%; in test [2] (setting [7]) it was 100%; in test [3], 96%.
Take `CNC1(C)C2CCC(C2)C12CC2` (stereo not drawn): the Ki in test [1] (read-out: Human α4β2 Ki) was over 10000 nM. In addition, the figures for the IC50 in test [2] (setting [4]) and in test [2] (setting [6]) were 380 nM and 120 nM, respectively. In addition, the results for the Emax in test [2] (setting [5]), in test [2] (setting [7]) and in test [3] were 97%, 93% and 98%, respectively.
`CNC1(C)C2CCC(CC2)C12CCCC2` (stereo not drawn): in test [1] (read-out: Human α4β2 Ki), the inhibitory constant (Ki) was 300 nM. The IC50 in test [2] (setting [6]) is 400 nM. Besides, the Emax stood at 95% in test [2] (setting [7]) and 92% in test [3].
On to `CN[C@@]1(C)[C@@H]2CC[C@@H](C2)C12CCC2` (racemic), for which the Ki in test [1] (read-out: Human α4β2 Ki) was 8700 nM. Moreover, the Emax in test [2] (setting [5]) is 98%; in test [2] (setting [7]), 95%; in test [3], 93%.
On to `CN[C@@]1(C)[C@@H]2CC[C@@H](C2)C12CCC2` (single isomer, unassigned) [drawing 29], for which the Ki in test [1] (read-out: Human α4β2 Ki) is over 10000 nM. Also, the “Human α4β2 Ca Flux Imax [29C/HS]” value in test [2] (setting [8]) was 98 % inh. Further, in test [2] (37C/LS), the “Human α4β2 Ca Flux Imax [37C/LS]” value turned out to be 96 % inh.
For the compound `CN[C@@]1(C)[C@@H]2CC[C@@H](C2)C12CCC2` (single isomer, unassigned) [drawing 30], the Ki in test [1] (read-out: Human α4β2 Ki) was over 10000 nM. The “Human α4β2 Ca Flux Imax [29C/HS]” value in test [2] (setting [8]) is reported as 98 % inh. Further, the “Human α4β2 Ca Flux Imax [37C/LS]” value in test [2] (37C/LS) was determined as 94 % inh.
For the compound `CNC1C2(CCC2)[C@H]2CC[C@]1(C)C2(C)C` (stereo partly drawn) [drawing 31], the inhibition constant Ki in test [1] (read-out: Human α4β2 Ki) is over 10000 nM. Further, the IC50 amounted to 1300 nM in test [2] (setting [4]) and 498 nM in test [2] (setting [6]). Moreover, the Emax in test [2] (setting [5]) is 99%; in test [2] (setting [7]), 96%; in test [3], 97%.
For the compound `CNC1C2(CCC2)[C@H]2CC[C@]1(C)C2(C)C` (stereo partly drawn) [drawing 32], in test [1] (read-out: Human α4β2 Ki), the Ki is 5600 nM. The “Human α4β2 Ca Flux Imax [29C/HS]” value in test [2] (setting [8]) is listed as 98 % inh. The IC50 in test [2] (setting [4]) stood at 710 nM; in test [2] (setting [6]) it was 430 nM. In addition, in test [2] (37C/LS), the “Human α4β2 Ca Flux Imax [37C/LS]” value stood at 96 % inh.
As for `CNC1C2(CCC2)[C@@H]2CC[C@@]1(C)C2(C)C` (stereo partly drawn) [drawing 33], the Ki in test [1] (read-out: Human α4β2 Ki) was over 10000 nM. For the same compound, the IC50 in test [2] (setting [4]) was determined as 1000 nM; in test [2] (setting [6]), 600 nM. Further, the Emax in test [2] (setting [5]) was 97%; in test [2] (setting [7]), 95%; in test [3], 95%.
As to `CNC1C2(CCC2)[C@@H]2CC[C@@]1(C)C2(C)C` (stereo partly drawn) [drawing 34], the Ki in test [1] (read-out: Human α4β2 Ki) is over 10000 nM. Moreover, the “Human α4β2 Ca Flux Imax [29C/HS]” value in test [2] (setting [8]) is reported as 97 % inh. The IC50 was determined as 310 nM in test [2] (setting [4]) and 270 nM in test [2] (setting [6]). In test [2] (37C/LS), the “Human α4β2 Ca Flux Imax [37C/LS]” value was found to be 93 % inh.
In the case of `CN(C)C1C2(CCC2)[C@H]2CC[C@]1(C)C2(C)C` (stereo partly drawn) [drawing 35], in test [1] (read-out: Human α4β2 Ki), the Ki was over 10000 nM. Besides, the IC50 amounted to 540 nM in test [2] (setting [4]) and 520 nM in test [2] (setting [6]). The Emax is 96% in test [2] (setting [5]), 97% in test [2] (setting [7]) and 98% in test [3].
Regarding `CN(C)C1C2(CCC2)[C@H]2CC[C@]1(C)C2(C)C` (stereo partly drawn) [drawing 36], the Ki in test [1] (read-out: Human α4β2 Ki) was over 10000 nM. In addition, the “Human α4β2 Ca Flux Imax [29C/HS]” value in test [2] (setting [8]) turned out to be 96 % inh. For the same compound, the results for the IC50 in test [2] (setting [4]) and in test [2] (setting [6]) were 140 nM and 350 nM, respectively. Further, the “Human α4β2 Ca Flux Imax [37C/LS]” value in test [2] (37C/LS) came out at 95 % inh.
In the case of `CN(C)C1C2(CCC2)[C@@H]2CC[C@@]1(C)C2(C)C` (stereo partly drawn) [drawing 37], in test [1] (read-out: Human α4β2 Ki), the Ki is 3200 nM. In addition, the IC50 was determined as 1100 nM in test [2] (setting [4]) and 280 nM in test [2] (setting [6]). The results for the Emax in test [2] (setting [5]), in test [2] (setting [7]) and in test [3] were 96%, 95% and 95%, respectively.
As for `CN(C)C1C2(CCC2)[C@@H]2CC[C@@]1(C)C2(C)C` (stereo partly drawn) [drawing 38], the inhibition constant Ki in test [1] (read-out: Human α4β2 Ki) amounted to 2600 nM. Besides, in test [2] (setting [8]), the “Human α4β2 Ca Flux Imax [29C/HS]” value stood at 95 % inh. The IC50 in test [2] (setting [4]) was found to be 740 nM; in test [2] (setting [6]), 380 nM. Besides, the “Human α4β2 Ca Flux Imax [37C/LS]” value in test [2] (37C/LS) is 95 % inh.
